Patent US10874745B2, “Antimicrobial peptides and methods of treating gram-negative pathogens: polar and non-polar face analogs” (priority 2017, dated 2020)
Converted amounts (≈) assume the structure as drawn. “And” between values parts separate entries of the source, which are not always exact repeats. Equal values may be shown once. Read-outs that look alike come from different tables or passages of the source. Non-standard residues stand in square brackets, D forms with d. Residues, ends and D or L forms follow the SMILES beside them. *: point of attachment. MeO(CH2CH2O)23CH2CH2CO = COCCOCCOCCOCCOCCOCCOCCOCCOCCOCCOCCOCCOCCOCCOCCOCCOCCOCCOCCOCCOCCOCCOCCOCCC(=O)*; dDab = NCC[C@@H](N)C(=O)O

Key:
Hemolytic activity = format: cell-based, human; conditions: 1% human erythrocytes (red blood cells), pH 7.4
Protocol: (§1) Hemoglobin release was determined spectrophotometrically at 570 nm. […] […] […] With the peptides used in this study the inventors used the HC30/MIC ratio value to calculate the therapeutic index.

[1] = system: A. baumannii strains resistant to Polymyxin B and Colistin; format: cell-based
human red blood cells = experiment: Hemolytic activity; format: cell-based
Protocol: as §1

[2] = 50% hemolysis of human red blood cells after 18 hours at 37° C.
[3] = 50% hemolysis of human red blood cells after 18 hours at 37° C., read-out: HC50

| SMILES | HC50 at 18 h (Hemolytic activity; human) | MIC ([1]; strain MB9941 (Table 9C)) | MIC ([1]; strain MB9949 (Table 9C)) | MIC ([1]; strain MB9951 (Table 9C)) | MIC ([1]; strain MB9952 (Table 9C)) | MIC ([1]; strain MB9953 (Table 9C)) | MIC ([1]; strain MB9955 (Table 9C)) | MIC ([1]; strain MB9963 (Table 9C)) | HC50 (human red blood cells) | HC50 (human red blood cells; [2]) | HC50 at 18 h (Hemolytic activity; [3]) | Hemolysis of human red blood cells, in words (human red blood cells; FIG. 10) |
| --- | --- | --- | --- | --- | --- | --- | --- | --- | --- | --- | --- | --- |
| CC(=O)N[C@H](CCCCN)C(=O)N[C@H](CC(C)C)C(=O)N[C@H](CCCN)C(=O)N[C@H](CO)C(=O)N[C@H](CC(C)C)C(=O)N[C@H](CC(C)C)C(=O)N[C@H](CCCN)C(=O)N[C@@H](C(=O)N[C@H](CC(C)C)C(=O)N[C@H](CO)C(=O)N[C@H](CCCN)C(=O)N[C@H](C)C(=O)N[C@H](CCCCN)C(=O)N[C@H](C)C(=O)N[C@H](C)C(=O)N[C@H](CCCCN)C(=O)N[C@H](CC(C)C)C(=O)N[C@H](CCCN)C(=O)N[C@@H](C(=O)N[C@H](CC(C)C)C(=O)N[C@H](CC(C)C)C(=O)N[C@H](CCCN)C(=O)N[C@H](C)C(=O)N[C@H](CC(C)C)C(=O)N[C@H](CO)C(=O)N[C@H](CCCN)C(N)=O)[C@H](C)O)[C@H](C)O [Peptide D85, Ac-KL(Orn)SLL(Orn)TLS(Orn)AKAAKL(Orn)TLL(Orn)ALS(Orn)-amide] | 406 µg/mL | 0.7 µM (≈ 1.95 µg/mL) | 0.7 µM (≈ 1.95 µg/mL) | 0.7 µM (≈ 1.95 µg/mL) | 0.4 µM (≈ 1.11 µg/mL) | 0.4 µM (≈ 1.11 µg/mL) | 0.4 µM (≈ 1.11 µg/mL) | 0.4 µM (≈ 1.11 µg/mL) | – | – | – | – |
| CC(=O)N[C@H](CCCCN)C(=O)N[C@H](CC(C)C)C(=O)N[C@H](CCN)C(=O)N[C@H](CO)C(=O)N[C@H](CC(C)C)C(=O)N[C@H](CC(C)C)C(=O)N[C@H](CCN)C(=O)N[C@@H](C(=O)N[C@H](CC(C)C)C(=O)N[C@H](CO)C(=O)N[C@H](CCN)C(=O)N[C@H](C)C(=O)N[C@H](CCCCN)C(=O)N[C@H](C)C(=O)N[C@H](C)C(=O)N[C@H](CCCCN)C(=O)N[C@H](CC(C)C)C(=O)N[C@H](CCN)C(=O)N[C@@H](C(=O)N[C@H](CC(C)C)C(=O)N[C@H](CC(C)C)C(=O)N[C@H](CCN)C(=O)N[C@H](C)C(=O)N[C@H](CC(C)C)C(=O)N[C@H](CO)C(=O)N[C@H](CCN)C(N)=O)[C@H](C)O)[C@H](C)O [Peptide D86, Ac-KL(Dbu)SLL(Dbu)TLS(Dbu)AKAAKL(Dbu)TLL(Dbu)ALS(Dbu)-amide] (Ac-[dK][dL][dDab][dS][dL][dL][dDab][dT][dL][dS][dDab][dA][dK][dA][dA][dK][dL][dDab][dT][dL][dL][dDab][dA][dL][dS][dDab]-NH2) | > 2000 µg/mL and > 742 µM | 0.7 µM (≈ 1.89 µg/mL) | 0.7 µM (≈ 1.89 µg/mL) | 1.4 µM (≈ 3.78 µg/mL) | 0.7 µM (≈ 1.89 µg/mL) | 1.4 µM (≈ 3.78 µg/mL) | 0.7 µM (≈ 1.89 µg/mL) | 1.4 µM (≈ 3.78 µg/mL) | >741.5 µM | > 742 µM | – | – |
| COCCOCCOCCOCCOCCOCCOCCOCCOCCOCCOCCOCCOCCOCCOCCOCCOCCOCCOCCOCCOCCOCCOCCOCCC(=O)N[C@H](CCCCN)C(=O)N[C@H](CC(C)C)C(=O)N[C@H](CCN)C(=O)N[C@H](CO)C(=O)N[C@H](CC(C)C)C(=O)N[C@H](CC(C)C)C(=O)N[C@H](CCN)C(=O)N[C@@H](C(=O)N[C@H](CC(C)C)C(=O)N[C@H](CO)C(=O)N[C@H](CCN)C(=O)N[C@H](C)C(=O)N[C@H](CCCCN)C(=O)N[C@H](C)C(=O)N[C@H](C)C(=O)N[C@H](CCCCN)C(=O)N[C@H](CC(C)C)C(=O)N[C@H](CCN)C(=O)N[C@@H](C(=O)N[C@H](CC(C)C)C(=O)N[C@H](CC(C)C)C(=O)N[C@H](CCN)C(=O)N[C@H](C)C(=O)N[C@H](CC(C)C)C(=O)N[C@H](CO)C(=O)N[C@H](CCN)C(N)=O)[C@H](C)O)[C@H](C)O [Peptide D86PEG1, m-dPEG24-D86] ({MeO(CH2CH2O)23CH2CH2CO}-[dK][dL][dDab][dS][dL][dL][dDab][dT][dL][dS][dDab][dA][dK][dA][dA][dK][dL][dDab][dT][dL][dL][dDab][dA][dL][dS][dDab]-NH2) | – | 1.1 µM (≈ 4.13 µg/mL) | 2.1 µM (≈ 7.88 µg/mL) | 4.1 µM (≈ 15.4 µg/mL) | 4.1 µM (≈ 15.4 µg/mL) | 8.3 µM (≈ 31.2 µg/mL) | 1.1 µM (≈ 4.13 µg/mL) | 4.1 µM (≈ 15.4 µg/mL) | – | 136.7 µM | 363 µg/mL and 137 µM | – |
| CC(=O)N[C@H](CCCCN)C(=O)N[C@H](CC(C)C)C(=O)N[C@H](CCN)C(=O)N[C@H](CO)C(=O)N[C@H](CC(C)C)C(=O)N[C@H](CC(C)C)C(=O)N[C@H](CCN)C(=O)N[C@@H](C(=O)N[C@H](CC(C)C)C(=O)N[C@H](CO)C(=O)N[C@H](C)C(=O)N[C@H](C)C(=O)N[C@H](CCCCN)C(=O)N[C@H](CCN)C(=O)N[C@H](CCN)C(=O)N[C@H](CCCCN)C(=O)N[C@H](CC(C)C)C(=O)N[C@H](C)C(=O)N[C@@H](C(=O)N[C@H](CC(C)C)C(=O)N[C@H](CC(C)C)C(=O)N[C@H](CCN)C(=O)N[C@H](C)C(=O)N[C@H](CC(C)C)C(=O)N[C@H](CO)C(=O)N[C@H](CCN)C(N)=O)[C@H](C)O)[C@H](C)O [Peptide D89, Ac-KL(Dbu)SLL(Dbu)TLSAAK(Dbu)(Dbu)KLATLL(Dbu)ALS(Dbu)-amide] (Ac-[dK][dL][dDab][dS][dL][dL][dDab][dT][dL][dS][dA][dA][dK][dDab][dDab][dK][dL][dA][dT][dL][dL][dDab][dA][dL][dS][dDab]-NH2) | > 3000 µg/mL and > 1.11 mM | 0.7 µM (≈ 1.89 µg/mL) | 0.7 µM (≈ 1.89 µg/mL) | 0.7 µM (≈ 1.89 µg/mL) | 0.7 µM (≈ 1.89 µg/mL) | 0.7 µM (≈ 1.89 µg/mL) | 0.7 µM (≈ 1.89 µg/mL) | 0.7 µM (≈ 1.89 µg/mL) | – | – | – | – |
| CC(=O)N[C@H](CCCCN)C(=O)N[C@H](CC(C)C)C(=O)N[C@H](CCN)C(=O)N[C@H](CO)C(=O)N[C@H](CC(C)C)C(=O)N[C@H](CC(C)C)C(=O)N[C@H](CCN)C(=O)N[C@@H](C(=O)N[C@H](CC(C)C)C(=O)N[C@H](CO)C(=O)N[C@H](CCN)C(=O)N[C@H](C)C(=O)N[C@H](CCCCN)C(=O)N[C@H](C)C(=O)N[C@H](C)C(=O)N[C@H](CCCCN)C(=O)N[C@H](CC(C)C)C(=O)N[C@H](CCN)C(=O)N[C@@H](C(=O)N[C@H](CC(C)C)C(=O)N[C@H](CC(C)C)C(=O)N[C@H](CCN)C(=O)N[C@H](C)C(=O)N[C@H](CC(C)C)C(=O)N[C@H](CO)C(=O)N[C@H](CO)C(N)=O)[C@H](C)O)[C@H](C)O [Peptide D102, Ac-KL(Dbu)SLL(Dbu)TLS(Dbu)AKAAKL(Dbu)TLL(Dbu)ALSS-amide] (Ac-[dK][dL][dDab][dS][dL][dL][dDab][dT][dL][dS][dDab][dA][dK][dA][dA][dK][dL][dDab][dT][dL][dL][dDab][dA][dL][dS][dS]-NH2) | – | – | – | – | – | – | – | – | – | – | > 2000 µg/mL and > 708 µM | basically no hemolysis |
| CC(=O)N[C@H](CCCCN)C(=O)N[C@H](CC(C)C)C(=O)N[C@H](CN)C(=O)N[C@H](CO)C(=O)N[C@H](CC(C)C)C(=O)N[C@H](CC(C)C)C(=O)N[C@H](CN)C(=O)N[C@@H](C(=O)N[C@H](CC(C)C)C(=O)N[C@H](CO)C(=O)N[C@H](CN)C(=O)N[C@H](C)C(=O)N[C@H](CCCCN)C(=O)N[C@H](C)C(=O)N[C@H](C)C(=O)N[C@H](CCCCN)C(=O)N[C@H](CC(C)C)C(=O)N[C@H](CN)C(=O)N[C@@H](C(=O)N[C@H](CC(C)C)C(=O)N[C@H](CC(C)C)C(=O)N[C@H](CN)C(=O)N[C@H](C)C(=O)N[C@H](CC(C)C)C(=O)N[C@H](CO)C(=O)N[C@H](CN)C(N)=O)[C@H](C)O)[C@H](C)O [Peptide D105, Ac-KL(Dpr)SLL(Dpr)TLS(Dpr)AKAAKL(Dpr)TLL(Dpr)ALS(Dpr)-amide] | > 3000 µg/mL and > 1.15 mM | 0.8 µM (≈ 2.09 µg/mL) | 0.8 µM (≈ 2.09 µg/mL) | 3.0 µM (≈ 7.84 µg/mL) | 0.8 µM (≈ 2.09 µg/mL) | 3.0 µM (≈ 7.84 µg/mL) | 0.8 µM (≈ 2.09 µg/mL) | 1.5 µM (≈ 3.92 µg/mL) | – | – | – | – |
